Measured values: US12612360B2 (Sanofi, priority 2020, dated 2026)

Target: T1, ERα (Homo sapiens, UniProt P03372)
T1 construct: host or cells: MCF7
T1 sequence (P03372 1-595): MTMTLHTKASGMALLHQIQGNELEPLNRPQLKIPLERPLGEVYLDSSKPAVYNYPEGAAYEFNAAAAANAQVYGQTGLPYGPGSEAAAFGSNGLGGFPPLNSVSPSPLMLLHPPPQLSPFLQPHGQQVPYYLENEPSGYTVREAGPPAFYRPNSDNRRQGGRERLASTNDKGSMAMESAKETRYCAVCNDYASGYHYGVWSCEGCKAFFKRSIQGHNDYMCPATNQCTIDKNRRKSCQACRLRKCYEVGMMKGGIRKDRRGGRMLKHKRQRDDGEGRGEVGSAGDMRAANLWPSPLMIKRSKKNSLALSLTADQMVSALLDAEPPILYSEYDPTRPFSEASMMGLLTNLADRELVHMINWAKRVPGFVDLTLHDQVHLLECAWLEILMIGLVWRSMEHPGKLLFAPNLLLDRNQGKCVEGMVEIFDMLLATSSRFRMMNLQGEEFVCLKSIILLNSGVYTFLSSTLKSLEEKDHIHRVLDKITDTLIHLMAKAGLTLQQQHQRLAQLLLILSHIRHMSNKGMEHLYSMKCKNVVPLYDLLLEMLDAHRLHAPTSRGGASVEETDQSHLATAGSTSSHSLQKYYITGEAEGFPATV
Assay: Estrogen receptor degradation activity: breast cancer cell ERα in cell western assay (MCF7 cells)
Assay type: cell-based
Conditions: for % Degradation At 0.3 μM: 4 hours, relative to fulvestrant 0.1 μM positive control; for DC50: 4 hours post compound addition, concentration which degrades 50% of the estrogen receptor, read-out: Degradation IC50
Outline: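 In-cell western readout: ERα immunofluorescence (Alexa 488) normalised to DNA signal (Syto-64) after formalin fixation. Compounds dosed for 4 h on MCF7 cells in stripped-serum, phenol-red-free medium over nine 1:5 steps, 0.3 to […] final; fulvestrant 0.1 μM control. IC50 in nM for 50% ERα degradation.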

Row | SMILES | % Degradation At 0.3 μM [%] | DC50 [nM]
1 | CC(=C1CN(CCCF)C1)c1ccc(C2=C(c3ccc(Cl)cc3Cl)CCCc3cc(C(=O)O)ccc32)cc1 [Example 102, 8-(2,4-Dichlorophenyl)-9-(4-(1-(1-(3-fluoropropyl)azetidin-3-ylidene)ethyl)phenyl)-6,7-dihydro-5H-benzo[7]annulene-3-carboxylic acid] | 89 | 0.3
2 | Cl.O=C(O)c1ccc2c(c1)CCCC(c1ccc(Cl)cc1Cl)=C2c1ccc(C=C2CN(CCCF)C2)cc1F [Example 101, 8-(2,4-dichlorophenyl)-9-(2-fluoro-4-((1-(3-fluoropropyl)azetidin-3-ylidene)methyl)phenyl)-6,7-dihydro-5H-benzo[7]annulene-3-carboxylic acid hydrochloride] | 93 | 0.4
3 | Cc1c(C2=C(c3ccc(C=C4CN(CCC(F)(F)F)C4)cc3)c3ccc(C(=O)O)cc3CCC2)ccc(Cl)c1F [Example 111, 8-(4-chloro-3-fluoro-2-methylphenyl)-9-(4-((1-(3,3,3-trifluoropropyl)azetidin-3-ylidene)methyl)phenyl)-6,7-dihydro-5H-benzo[7]annulene-3-carboxylic acid] | 90 | 1
4 | Cc1cc(C2=C(c3ccc(Cl)cc3Cl)CCCc3cc(C(=O)O)ccc32)cc(C)c1C=C1CN(CCCF)C1.Cl [Example 104, 8-(2,4-dichlorophenyl)-9-(4-((1-(3-fluoropropyl)azetidin-3-ylidene)methyl)-3,5-dimethylphenyl)-6,7-dihydro-5H-benzo[7]annulene-3-carboxylic acid hydrochloride] | 79 | 4.9
5 | O=C(O)c1ccc2c(c1)CCCC(c1cccc(Cl)c1C(F)(F)F)=C2c1ccc(C=C2CN(CCC(F)(F)F)C2)cc1 [Example 107, 8-(3-chloro-2-(trifluoromethyl)phenyl)-9-(4-((1-(3,3,3-trifluoropropyl)azetidin-3-ylidene)methyl)phenyl)-6,7-dihydro-5H-benzo[7]annulene-3-carboxylic acid] | 93 | 1.3
6 | Cc1c(F)cccc1C1=C(c2ccc(C=C3CN(CCCF)C3)cc2)c2ccc(C(=O)O)cc2CCC1 [Example 85, 8-(3-fluoro-2-methylphenyl)-9-(4-((1-(3-fluoropropyl)azetidin-3-ylidene)methyl)phenyl)-6,7-dihydro-5H-benzo[7]annulene-3-carboxylic acid] | 94 | 0.2
7 | Cc1ccc(C2=C(c3ccc(C=C4CN(CCCF)C4)cc3)c3ccc(C(=O)O)cc3CCC2)c(Cl)c1 [Example 41, 8-(2-chloro-4-methylphenyl)-9-(4-((1-(3-fluoropropyl)azetidin-3-ylidene)methyl)phenyl)-6,7-dihydro-5H-benzo[7]annulene-3-carboxylic acid] | 92 | 0.2
8 | COc1ccc(C2=C(c3ccc(C=C4CN(CCCF)C4)cc3)c3ccc(C(=O)O)cc3CCC2)cc1C(F)(F)F [Example 148, 9-(4-((1-(3-fluoropropyl)azetidin-3-ylidene)methyl)phenyl)-8-(4-methoxy-3-(trifluoromethyl)phenyl)-6,7-dihydro-5H-benzo[7]annulene-3-carboxylic acid] | 90 | 1.2
9 | Cl.O=C(O)c1ccc2c(c1)CCCC(c1ccc(C(F)(F)F)cc1)=C2c1ccc(C=C2CN(CCCF)C2)cc1 [Example 185, 9-(4-((1-(3-fluoropropyl)azetidin-3-ylidene)methyl)phenyl)-8-(4-(trifluoromethyl)phenyl)-6,7-dihydro-5H-benzo[7]annulene-3-carboxylic acid hydrochloride] | 90 | 0.5
10 | O=C(O)c1ccc2c(c1)CCCC(c1ccc(F)cc1C1CC1)=C2c1ccc(C=C2CN(CCCF)C2)cc1 [Example 40, 8-(2-cyclopropyl-4-fluorophenyl)-9-(4-((1-(3-fluoropropyl)azetidin-3-ylidene)methyl)phenyl)-6,7-dihydro-5H-benzo[7]annulene-3-carboxylic acid] | 87 | 0.3
11 | Cc1cc(F)ccc1C1=C(c2ccc(C=C3CN(CCCF)C3)cc2F)c2ccc(C(=O)O)cc2CCC1 [Example 11, 8-(4-fluoro-2-methylphenyl)-9-(2-fluoro-4-((1-(3-fluoropropyl)azetidin-3-ylidene)methyl)phenyl)-6,7-dihydro-5H-benzo[7]annulene-3-carboxylic acid] | 91 | 0.3
12 | O=C(O)c1ccc2c(c1)CCCC([C@@H]1C[C@H]1C1CCC(F)(F)CC1)=C2c1ccc(C=C2CN(CCCF)C2)cc1 (racemic) [Example 187, 8-(trans-2-(4,4-difluorocyclohexyl)cyclopropyl)-9-(4-((1-(3-fluoropropyl)azetidin-3-ylidene)methyl)phenyl)-6,7-dihydro-5H-benzo[7]annulene-3-carboxylic acid] | 86 | 1.6
13 | O=C(O)c1ccc2c(c1)CCCC(c1ccc3c(c1)CC3)=C2c1ccc(C=C2CN(CCCF)C2)cc1 [Example 8, 8-(Bicyclo[4.2.0]octa-1,3,5-trien-3-yl)-9-(4-((1-(3-fluoropropyl)azetidin-3-ylidene)methyl)phenyl)-6,7-dihydro-5H-benzo[7]annulene-3-carboxylic acid] | 86 | 0.4
14 | Cc1c(F)ccc(C2=C(c3ccc(C=C4CN(CCC(F)F)C4)cc3)c3ccc(C(=O)O)cc3CCC2)c1C [Example 130, 9-(4-((1-(3,3-difluoropropyl)azetidin-3-ylidene)methyl)phenyl)-8-(4-fluoro-2,3-dimethylphenyl)-6,7-dihydro-5H-benzo[7]annulene-3-carboxylic acid] | 96 | 1.6
15 | Cc1cc(C=C2CN(CCCF)C2)cc(F)c1C1=C(c2ccc(Cl)cc2Cl)CCCc2cc(C(=O)O)ccc21.Cl [Example 66, 8-(2,4-dichlorophenyl)-9-(2-fluoro-4-((1-(3-fluoropropyl)azetidin-3-ylidene)methyl)-6-methylphenyl)-6,7-dihydro-5H-benzo[7]annulene-3-carboxylic acid hydrochloride] | 98 | 0.4
16 | Cc1c(C=C2CN(CCCF)C2)ccc(C2=C(c3ccc(Cl)cc3Cl)CCCc3cc(C(=O)O)ccc32)c1F.Cl [Example 74, 8-(2,4-dichlorophenyl)-9-(2-fluoro-4-((1-(3-fluoropropyl)azetidin-3-ylidene)methyl)-3-methylphenyl)-6,7-dihydro-5H-benzo[7]annulene-3-carboxylic acid hydrochloride] | 92 | 0.5
17 | Cc1cc(C2=C(c3ccc(C=C4CN(CCCF)C4)cc3)c3ccc(C(=O)O)cc3CCC2)cc(C(F)(F)F)c1 [Example 145, 9-(4-((1-(3-fluoropropyl)azetidin-3-ylidene)methyl)phenyl)-8-(3-methyl-5-(trifluoromethyl)phenyl)-6,7-dihydro-5H-benzo[7]annulene-3-carboxylic acid] | 85 | 4.3
18 | O=C(O)c1ccc2c(c1)CCCC(C13CCCC1C3)=C2c1ccc(C=C2CN(CCCF)C2)cc1 (centres unmarked) [Example 175, 8-(bicyclo[3.1.0]hexan-1-yl)-9-(4-((1-(3-fluoropropyl)azetidin-3-ylidene)methyl)phenyl)-6,7-dihydro-5H-benzo[7]annulene-3-carboxylic acid] | 87 | 0.3
19 | Cc1cc(Cl)cc(C)c1C1=C(c2ccc(C=C3CN(CCCF)C3)cc2)c2ccc(C(=O)O)cc2CCC1 [Example 83, 8-(4-chloro-2,6-dimethylphenyl)-9-(4-((1-(3-fluoropropyl)azetidin-3-ylidene)methyl)phenyl)-6,7-dihydro-5H-benzo[7]annulene-3-carboxylic acid] | 93 | 0.4
20 | O=C(O)c1ccc2c(c1)CCCC([C@H]1[C@@H]3CCCC[C@@H]31)=C2c1ccc(C=C2CN(CCCF)C2)cc1 [Example 174, 84(1R,6S,70-bicyclo[4.1.0]heptan-7-yl)-9-(4-((1-(3-fluoropropyl)azetidin-3-ylidene)methyl)phenyl)-6,7-dihydro-5H-benzo[7]annulene-3-carboxylic acid] | 86 | 2.6
21 | Cc1cc(F)ccc1C1=C(c2ccc(C=C3CN(CCCF)C3)cc2C(F)(F)F)c2ccc(C(=O)O)cc2CCC1 [Example 138, 8-(4-fluoro-2-methylphenyl)-9-(4-((1-(3-fluoropropyl)azetidin-3-ylidene)methyl)-2-(trifluoromethyl)phenyl)-6,7-dihydro-5H-benzo[7]annulene-3-carboxylic acid] | 95 | 1.8
22 | O=C(O)c1ccc2c(c1)CCCC(c1cc(F)cc(C(F)(F)F)c1Cl)=C2c1ccc(C=C2CN(CCCF)C2)cc1 [Example 123, 8-(2-chloro-5-fluoro-3-(trifluoromethyl)phenyl)-9-(4-((1-(3-fluoropropyl)azetidin-3-ylidene)methyl)phenyl)-6,7-dihydro-5H-benzo[7]annulene-3-carboxylic acid] | 94 | 0.7
